The assay has as its system Pseudomonas aeruginosa PAO1. Put plainly: MBEC assay, biofilm formation of P. aeruginosa PAO1. It counts as cell-based. To be noted: compound concentration 100 μM, class symbols. On the procedure: The compound to be tested was dissolved in DMSO to obtain a concentration that was 100 times that of the final concentration required (1 mM for the 10 μM assay and 10 mM for the 100 μM assay). 1.5 μL of the above solution was placed into each well of a 96 well plate (final volume in each well=150 μL, final DMSO concentration of 1% (v/v)).
To grow the organism and form a biofilm, a cryogenic stock of the test organism (at −70° C.) was used. A first sub-culture was streaked out onto TSA (tryptic soy agar), upon which the plate was incubated at 35±2° C. for 24 hours and stored wrapped in parafilm at 4° C. afterwards. From this first sub-culture, a second sub-culture was streaked out onto TSA. The plate was incubated at 35±2° C. for 24 hours. The second sub-culture was used within 24 hours starting from the time it was first removed from incubation. Using the second sub-culture an inoculum in 3 mL sterile water that matches a 0.5 McFarland Standard (1.5×10^8 cells per mL) was created in a glass test tube using a sterile cotton swab. 2.2 mL of this solution was diluted in 22 mL 100% TSB (tryptic soy broth) medium to a cell density of approximately […]. The diluted organism was inverted 3-5 times to achieve uniform mixing of the organism. One sample (100 μl) of the diluted organism was used for an inoculum check by serially diluting and spot plating on TSA.
To prepare a challenge plate, […] of the diluted organism was added to each well of a 96 well plate except the sterility control wells. The test compounds were added to the wells to make up final concentrations of 10 μM and […] (1.5 μL/well) in the designated location in the test plate. 128.5 μL of 100% universal neutralizer (1% Tween 80 in Cation Adjusted Mueller Hinton Broth, CAMHB) was placed in each of the wells. 130 μL of media was added to the growth control wells. 128.5 μL of media+1.5 μL of DMSO were added to a second set of growth control wells. 150 μL of media was added to the sterility controls. Each sample was run in triplicate. The plate was covered by a lid with a peg per well and wrapped in parafilm and placed on a shaker in a humidified incubator (GeneVac) at 35±+2° C. for 24 hours set at 110 rpm.
Rinse plate(s) of 0.9% saline (200 μL per well) were prepared in a sterile 96 well microtitre plate. Lid-associated pegs were rinsed in 0.9% saline for approximately 1-2 minutes. The peg lid was transferred to the recovery media (1.0% Tween 80 in CAMHB) then sonicated for 30 minutes to dislodge surviving biofilm. Following sonication, 100 μL from each well of the 96 well plate was placed into the first 12 wells of the first row of a 96 well microtiter plate. 180 μl of 0.9% sterile saline was placed in the remaining rows. A serial dilution (10^0-10^7) was prepared by moving 20 μl down each of the 8 rows. 20 μl from each well was removed and spot plated on a prepared TSA. In the remaining recovery plate, 100 μl of fresh growth media (1.0% Tween 80 in CAMHB) was placed in each well to replace the amount removed. The recovery plate was covered with a regular lid and incubated at 35±2° C. for 24 hours and read visually to confirm antimicrobial activity of the test compounds.
The compounds of the present disclosure have been tested regarding their efficiency to inhibit biofilm formation of Staphylococcus aureus U of C#18 (MRSA), Staphylococcus aureus 456 (MRSA), Staphylococcus epidermidis RP62A, and Pseudomonas aeruginosa PAO1.

For the compound `CCCCCCCCCCCC(=O)Nc1cccc(F)c1` [Example 17, N-(3-fluorophenyl)dodecanamide], the inhibition (in general, the drop in the measured response relative to a control, in per cent) at 100 µM was 20 to 50%.

Compound `CCCCCCCCCOCC(=O)Nc1nnc(-c2ccccc2)s1` [Example 110, 2-(nonyloxy)-N-(5-phenyl-1,3,4-thiadiazol-2-yl)acetamide] gave an inhibition at 100 µM below 20%.

Regarding `CCCCCCCCOCCC(=O)Nc1cc(C)nn1C` [Example 114, N-(1,3-dimethylpyrazol-5-yl)-3-(octyloxy)propanamide], the inhibition at 100 µM is 20 to 50%.

The compound `CCCCCCCCCOCC(=O)N[C@H]1CCOC1=O` [Example 111, N-(2-nonyloxyacetyl)-L-homoserinelactone] returned an inhibition at 100 µM below 20%.

Compound `CCCCCCCCCCCC(=O)N1CCCCC1CO` (stereo not shown) [Example 37, 1-(2-(hydroxymethyl)piperidin-1-yl)dodecan-1-one] came in with an inhibition at 100 µM above 50%.

The compound `CCCCCCCCCCNC(=O)N(C)c1cccc(F)c1` [Example 52, 3-decyl-1-(3-fluorophenyl)-1-methylurea] came in with an inhibition at 100 µM of 20 to 50%.

`CCCCCCCCCC(=O)NC(=O)Nc1ccnn1C` [Example 99, N-(1-methylpyrazol-5-ylcarbamoyl)decanamide] had an inhibition at 100 µM of 20 to 50%.

In turn, `CCCCCCCCCCCC(=O)N1CCCC(C(=O)NCC(C)C)C1` (stereo not shown) [Example 134, 1-dodecanoyl-N-isobutylpiperidine-3-carboxamide] showed an inhibition at 100 µM of 20 to 50%.

`CCCCCCCCCCNC(=O)N(C)c1ccccc1F` [Example 50, 3-decyl-1-(2-fluorophenyl)-1-methylurea] had an inhibition at 100 µM of 20 to 50%.

With `CCCCCCCCCCCC(=O)Nc1ccc(F)cc1C(F)(F)F` [Example 24, N-(4-fluoro-2-(trifluoromethyl)phenyl)dodecanamide], the inhibition at 100 µM was below 20%.

Compound `CCCCCCCCCCNC(=O)N(C)c1cc(C(C)(C)C)nn1C` [Example 69, 1-(3-tert-butyl-1-methylpyrazol-5-yl)-3-decyl-1-methylurea] gave an inhibition at 100 µM above 50%.

`CCCCCCCCOCCC(=O)N[C@@H](C)c1ccccc1` [Example 113, (S)-3-(octyloxy)-N-(1-phenylethyl)propanamide] yielded an inhibition at 100 µM above 50%.

In the case of `CCCCCCCCCCCC(=O)Nc1ccccc1` [Example 13, N-phenyldodecanamide], the inhibition at 100 µM is below 20%.

Compound `CCCCCCCCOCCC(=O)Nc1cc(C(C)(C)C)nn1C` [Example 116, N-(3-tert-butyl-1-methylpyrazol-5-yl)-3-(octyloxy)propanamide] displayed an inhibition at 100 µM above 50%.

Compound `CCCCCCNC(=O)Nc1cc(C)nn1C` [Example 41, 1-(1,3-dimethylpyrazol-5-yl)-3-hexylurea] yielded an inhibition at 100 µM below 20%.

For `CCCCOCCOCC(=O)Nc1cc(C)ns1` [Example 123, 2-(2-butoxyethoxy)-N-(3-methylisothiazol-5-yl)acetamide], the inhibition at 100 µM is below 20%.

In turn, `COCCOCCOCC(=O)N[C@@H](C)c1ccccc1` [Example 127, (S)-2-(2-(2-methoxyethoxy)ethoxy)-N-(1-phenylethyl)acetamide] had an inhibition at 100 µM below 20%.

In turn, `CCCCCCCCCCCC(=O)N(C)c1ccccc1C(=O)O` [Example 26, 2-(N-methyldodecanamido)benzoic acid] returned an inhibition at 100 µM of 20 to 50%.

Regarding `CCCCCCCCCCNC(=O)Nc1cc(C2CC2)n[nH]1` [Example 65, 1-(3-cyclopropylpyrazol-5-yl)-3-decylurea], the inhibition at 100 µM was above 50%.

For the compound `CCCCCCCCNC(=O)Nc1cc(C(C)(C)C)nn1C` [Example 46, 1-(3-tert-butyl-1-methylpyrazol-5-yl)-3-octylurea], the inhibition at 100 µM was above 50%.

With `CCCCCCCCCCCC(=O)N(C)c1ccccc1F` [Example 16, N-(2-fluorophenyl)-N-methyldodecanamide], the inhibition at 100 µM is above 50%.

As for `CCCCCCCCCCCCNC(=O)Nc1cc(-c2ccccc2)nn1C` [Example 86, 1-dodecyl-3-(1-methyl-3-phenylpyrazol-5-yl)urea], the inhibition at 100 µM is below 20%.

For `CCCCCCCCCCNC(=O)Nc1ccccc1` [Example 48, 1-decyl-3-phenylurea], the inhibition at 100 µM was below 20%.

`CCCCCCCCCCCC(=O)N1CCC(C(=O)Nc2cc(C(C)(C)C)nn2C)C1` (stereo not shown) [Example 154, N-(3-tert-butyl-1-methylpyrazol-5-yl)-1-dodecanoylpyrrolidine-3-carboxamide] displayed an inhibition at 100 µM of 20 to 50%.

For the compound `CCCCCCCCOCCC(=O)Nc1cc(C2CC2)nn1C` [Example 115, N-(3-cyclopropyl-1-methylpyrazol-5-yl)-3-(octyloxy)propanamide], the inhibition at 100 µM is above 50%.

With `CCCCCCCCCC(=O)NC(=O)N(C)c1ccc(F)cc1` [Example 95, N-((4-fluorophenyl)(methyl)carbamoyl)decanamide], the inhibition at 100 µM is above 50%.

The compound `CCCCCCCCCCCC(=O)N1CCC(C(=O)Nc2cc(C)nn2C)C1` (stereo not shown) [Example 153, N-(1,3-dimethylpyrazol-5-yl)-1-dodecanoylpyrrolidine-3-carboxamide] registered an inhibition at 100 µM above 50%.

`CCCCCCCCCCCC(=O)N[C@H]1CCOC1=O` [Example 33, N-dodecanoyl-L-homoserinelactone] came in with an inhibition at 100 µM below 20%.

For `CCCCCCCCNC(=O)Nc1cc(C)nn1C` [Example 44, 1-(1,3-dimethylpyrazol-5-yl)-3-octylurea], the inhibition at 100 µM fell in the range of 20 to 50%.

For `CCCCCCCCCC(=O)NCc1ccco1` [Example 29, N-(furan-2-ylmethyl)decanamide], the inhibition at 100 µM was in the range of 20 to 50%.

`CCCCCCCCCC(=O)NC(=O)N[C@@H](C)c1ccccc1` [Example 97, (S)-N-(1-phenylethylcarbamoyl)decanamide] displayed an inhibition at 100 µM of 20 to 50%.

Consider `CCCCCCCCCCCC(=O)N1CCCC(C(=O)NCC)C1` (stereo not shown) [Example 133, 1-dodecanoyl-N-ethylpiperidine-3-carboxamide], for which the inhibition at 100 µM was above 50%.

`CCCCCCCCNC(=O)Nc1cc(C2CC2)nn1C` [Example 45, 1-(3-cyclopropyl-1-methylpyrazol-5-yl)-3-octylurea] had an inhibition at 100 µM of 20 to 50%.

In the case of `CCCCCCCCCOCC(=O)Nc1cc(C(C)(C)C)on1` [Example 109, N-(5-tert-butylisoxazol-3-yl)-2-(nonyloxy)acetamide], the inhibition at 100 µM is 20 to 50%.

`CCCCCCCCCC(=O)N[C@H]1CCC[C@H]1C(=O)O` (relative stereo) [Example 36, cis-2-decanamidocyclopentanecarboxylic acid]: the inhibition at 100 µM was below 20%.

Compound `CCCCCCCCCCCC(=O)N(C)c1cccc(F)c1` [Example 18, N-(3-fluorophenyl)-N-methyldodecanamide] gave an inhibition at 100 µM above 50%.

The compound `CCCCCCCCCCNC(=O)Nc1cccc(F)c1` [Example 51, 1-decyl-3-(3-fluorophenyl)urea] yielded an inhibition at 100 µM below 20%.

`CCCCCCCCCCCCCCCCCCNC(=O)Nc1cc(C2CC2)nn1C` [Example 93, 1-(3-cyclopropyl-1-methyrpyrazol-5-yl)-3-octadecylurea]: the inhibition at 100 µM was below 20%.

`CCCCCCCCCCNC(=O)Nc1ccnn1C` [Example 61, 1-decyl-3-(1-methylpyrazol-5-yl)urea] displayed an inhibition at 100 µM of 20 to 50%.

The compound `CCCCNC(=O)Nc1cc(C(C)(C)C)nn1C` [Example 40, 1-butyl-3-(3-tert-butyl-1-methylpyrazol-5-yl)urea] gave an inhibition at 100 µM below 20%.
